According to patent US11267826B2, “Penicillin-binding protein inhibitors” (priority 2017, dated 2022):

How the values were obtained:
E. coli PBP3 = molecular target: T1, E. coli PBP3 (Escherichia coli, UniProt P0AD68); assay: Bocillin FL competition binding assay, PBP3; design: species or system Escherichia coli K12; conditions: 15 min pre-incubation
T1 construct: 100 μg's of total membrane protein extracts containing PBPs; endogenous in cells; host or cells: Escherichia coli K12, membrane protein fraction
T1 sequence (P0AD68 1-577): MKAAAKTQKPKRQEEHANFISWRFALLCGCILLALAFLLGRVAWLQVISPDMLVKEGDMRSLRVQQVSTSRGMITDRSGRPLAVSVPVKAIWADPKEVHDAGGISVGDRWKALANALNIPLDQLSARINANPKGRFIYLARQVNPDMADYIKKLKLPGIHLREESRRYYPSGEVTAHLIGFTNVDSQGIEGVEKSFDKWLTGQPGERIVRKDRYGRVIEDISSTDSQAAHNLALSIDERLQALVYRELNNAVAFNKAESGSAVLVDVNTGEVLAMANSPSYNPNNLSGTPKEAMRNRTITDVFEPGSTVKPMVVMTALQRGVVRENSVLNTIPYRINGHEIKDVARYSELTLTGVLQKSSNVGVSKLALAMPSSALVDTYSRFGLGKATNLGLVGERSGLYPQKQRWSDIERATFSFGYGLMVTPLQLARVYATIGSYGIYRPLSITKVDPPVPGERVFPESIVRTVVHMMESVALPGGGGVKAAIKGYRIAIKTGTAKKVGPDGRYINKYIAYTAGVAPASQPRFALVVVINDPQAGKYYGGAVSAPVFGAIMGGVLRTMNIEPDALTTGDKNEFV
Outline: (§1)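 E. coli K12 membrane extracts (100 µg protein) pre-incubated 15 min with compound (0.005–2,480 µg/mL) in pH 7 phosphate/350 mM NaCl, then labelled with Bocillin FL 30 min at 35°C; SDS-PAGE fluorescence (ex 450/em 520 nm), μg/mL reported. PBP1a/1b unresolved, reported combined.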

S. aureus ATCC 29213 = assay: Broth microdilution MIC assay, S. aureus; format: cell-based; conditions: Staphylococcus aureus, ATCC29213; broth microdilution, 16-20 hours at 37° C.; read-out: S. aureus 29213 MIC
Outline: (§2)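 Visual no-growth endpoint defines the MIC. Inoculum of 5×10^5 CFU/mL in divalent-cation-supplemented Mueller-Hinton broth was exposed to 2-fold dilution series of compound, then incubated 16-20 hours at 37° C per CLSI.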

E. coli K12 PBP1b = molecular target: T2, E. coli K12 PBP1b (Escherichia coli, UniProt P02919); assay: Competition binding assay using Bodipy-FL boronic acid probe (Example 125); conditions: Bodipy-FL boronic acid probe (Example 125) 30 μM, 10 minutes pre-incubation, 10 minutes reaction
T2 construct: endogenous in cells; host or cells: Escherichia coli K12, membrane protein fraction
T2 sequence (P02919 whole entry): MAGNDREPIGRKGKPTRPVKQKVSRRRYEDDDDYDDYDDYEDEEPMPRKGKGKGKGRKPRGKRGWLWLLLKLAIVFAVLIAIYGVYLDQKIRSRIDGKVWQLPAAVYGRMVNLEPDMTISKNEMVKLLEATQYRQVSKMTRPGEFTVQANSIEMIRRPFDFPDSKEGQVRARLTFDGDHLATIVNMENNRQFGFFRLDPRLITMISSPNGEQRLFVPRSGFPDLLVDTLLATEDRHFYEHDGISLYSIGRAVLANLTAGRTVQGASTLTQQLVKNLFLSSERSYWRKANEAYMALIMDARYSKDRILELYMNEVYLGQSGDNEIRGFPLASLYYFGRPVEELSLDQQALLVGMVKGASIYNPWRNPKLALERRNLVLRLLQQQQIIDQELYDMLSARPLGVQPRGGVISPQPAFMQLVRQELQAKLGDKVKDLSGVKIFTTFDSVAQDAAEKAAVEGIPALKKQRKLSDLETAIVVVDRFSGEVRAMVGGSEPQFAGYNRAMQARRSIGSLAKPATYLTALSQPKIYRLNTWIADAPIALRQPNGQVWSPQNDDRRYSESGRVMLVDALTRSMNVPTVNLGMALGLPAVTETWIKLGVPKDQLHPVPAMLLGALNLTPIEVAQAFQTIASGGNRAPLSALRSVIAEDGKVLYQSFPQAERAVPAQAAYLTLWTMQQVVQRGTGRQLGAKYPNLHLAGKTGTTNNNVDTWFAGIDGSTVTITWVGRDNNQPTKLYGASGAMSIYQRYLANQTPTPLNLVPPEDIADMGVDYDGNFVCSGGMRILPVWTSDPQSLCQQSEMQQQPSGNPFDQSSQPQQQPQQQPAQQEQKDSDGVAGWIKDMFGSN
Description: Penicillin binding proteins were isolated from Escherichia coli K12 by growth of Escherichia coli K12 from a single colony in 4 L of Luria-Bertani (LB) broth at 35° C. and 250 rpm to an OD600 nm of 0.5. The cells were harvested by centrifugation at 7,000×g for 10 min. at 4° C. Cells were resuspended and washed in 50 mM potassium phosphate pH 7.5. The cells were re-suspended in sonication buffer [50 mM Tris-HCl pH 7.5, 1 mM MgCl2, 1 mM beta-mercaptoethanol, and 5 μg/mL DNAse I] and sonicated by 4 passes of 30 seconds at 45 W on ice. The sample was clarified by centrifugation at 3,000×g to remove cell debris and unbroken cells and supernatant containing the membrane proteins was retained. The membrane proteins including the PBPs were further purified from soluble constituents by an ultracentrifugation step at 100,000×g for 30 min. at 4° C. The membrane proteins are washed twice with 10 mM sodium phosphate pH 7, resuspended in a volume of 5 mL, quantitated by BCA assay, adjusted to […] and frozen at −80° C. until use.
The adapted Bocillin FL competition binding method described herein incorporates a 15 min. pre-incubation of test compound with isolated PBPs to attempt to balance the difference in mechanism of inhibition between beta-lactams (largely irreversible covalent bond to active site Serine) and the boron-containing PBP inhibitor test compounds (reversible covalent bond to active site Serine). Briefly, 50 μL reactions consisted of 100 μg's of total membrane protein extracts containing PBPs incubated with a dilution series of test compound ranging from 0.005 μg/mL to 2,480 μg/mL in 10 mM sodium phosphate pH7 containing 350 mM NaCl. Thirty minute reactions at 35° C. were initiated by addition of […] Bocillin FL, quenched by addition of SDS-PAGE loading buffer containing sodium dodecyl sulfate (SDS) and heated for 15 minutes at 95° C. to denature proteins in preparation for SDS-polyacrylamide gel electrophoresis. The Bocillin FL labeled PBPs are then separated by SDS-PAGE in Novex NuPage 10% Bis-Tris pre-cast gels (Invitrogen). The SDS-PAGE gel, post-electrophoresis, is then washed in water to remove excess SDS for 10 minutes at room temperature and placed on the scanning bed of a GE Healthcare/Amersham Biosciences Storm 860 fluorescence scanner. The excitation wavelength is in the blue spectrum at 450 nm and the emission at 520 nm is captured by the instrument. Effective PBP inhibitors are detected by a reduction in Bocillin FL labeling of the particular PBP over the dose range of test compound in a dose-responsive manner. High molecular weight PBP 1a/1b are not resolved by these gels, thus we report HMW PBP binding results in μg/mL for PBPs 1a/1b combined as well as for PBP2 and PBP3.
To determine the ability of boronic acid-based test PBP inhibitors to bind Penicillin Binding Proteins (PBPs), a competition binding assay using a Bodipy-FL-labeled boronic acid PBP inhibitor (Example 125) was adapted from the classical method used to assess PBP potency of beta-lactams using Bocillin-FL (fluorescently-labeled penicillin V). The method is identical to that described in Example I for the Bocillin-FL competition binding assay with the following exceptions, the Bodipy-FL boronic acid probe (Example 125) is used at a final concentration of 30 μM, pre-incubation time of test compound with PBP enzymes is 10 minutes and reaction time is set for 10 minutes and reactions are prepared for SDS-PAGE analysis by simply adding SDS-containing loading buffer. Representative results are shown in Table 5, where A represents a potency of >1000 μg/mL, B represents a potency between 64 and 1000 μg/mL inclusive, and C represents a potency of <64 μg/mL. NT=Not Tested.

[1] = system: hyper-permeable E. coli 901C; assay: Broth microdilution MIC assay, hyper-permeable E. coli; format: cell-based; conditions: Escherichia coli, read-out: E. coli 901C MIC
Outline: as §2

E. coli K12 PBP1a/b = assay: Bocillin FL competition binding assay, PBP1a/1b combined; design: species or system Escherichia coli K12; conditions: 15 min pre-incubation, PBP 1a/1b combined
Outline: as §1

E. coli PBP2 = molecular target: T3, E. coli PBP2 (Escherichia coli, UniProt P0AD65); assay: Bocillin FL competition binding assay, PBP2; design: species or system Escherichia coli K12; conditions: 15 min pre-incubation
T3 construct: 100 μg's of total membrane protein extracts containing PBPs; endogenous in cells; host or cells: Escherichia coli K12, membrane protein fraction
T3 sequence (P0AD65 whole entry): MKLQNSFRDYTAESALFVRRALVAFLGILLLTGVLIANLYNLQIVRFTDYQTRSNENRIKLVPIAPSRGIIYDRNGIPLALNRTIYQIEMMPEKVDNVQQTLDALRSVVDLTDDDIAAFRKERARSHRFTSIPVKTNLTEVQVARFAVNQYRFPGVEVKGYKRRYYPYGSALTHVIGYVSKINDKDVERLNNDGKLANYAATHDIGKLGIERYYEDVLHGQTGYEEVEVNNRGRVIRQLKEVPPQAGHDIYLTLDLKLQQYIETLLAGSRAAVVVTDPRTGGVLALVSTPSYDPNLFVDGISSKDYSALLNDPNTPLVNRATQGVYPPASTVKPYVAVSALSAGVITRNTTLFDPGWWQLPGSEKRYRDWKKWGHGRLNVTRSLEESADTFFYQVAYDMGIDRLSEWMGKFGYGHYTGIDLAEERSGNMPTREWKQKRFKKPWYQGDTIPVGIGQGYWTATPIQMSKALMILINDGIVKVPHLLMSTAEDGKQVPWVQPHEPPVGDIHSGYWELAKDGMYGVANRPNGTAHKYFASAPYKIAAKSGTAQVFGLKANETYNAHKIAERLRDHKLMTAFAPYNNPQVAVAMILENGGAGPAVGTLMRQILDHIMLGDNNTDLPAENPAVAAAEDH
Outline: as §1

[2] = system: engineered strains of Escherichia coli harboring select single β-lactamases; assay: MIC across the panel of engineered E. coli strains harboring select single β-lactamases; format: cell-based; conditions: strains expressing β-lactamases compared with control strain, result in words
Description: To determine if test compounds were affected by various known β-lactamases, the inhibition of the growth of engineered strains of Escherichia coli harboring select single β-lactamases were tested. These strains were constructed by cloning the gene encoding the particular β-lactamase into the NdeI and BamHI restriction endonuclease sites of plasmid pLBII, placing the gene(s) under the control of the Lac promoter.

[3] = system: E. coli DH5a harboring TEM-24; assay: Broth microdilution MIC, engineered E. coli expressing TEM-24; format: cell-based; conditions: Escherichia coli, read-out: MIC, β-lactamase TEM
Description: (§3) To determine the ability of test compounds to potentiate the inhibition of the growth of bacterial strains, classic cell based broth microdilution MIC assays were employed. MIC assays are performed according to CLSI methods except where otherwise noted (CLSI, 2011 and CLSI, 2009). The reference strain S. aureus ATCC 29213 and the hyper-permeable E. coli 901C were used to determine the ability of the PBP compounds to inhibit bacterial growth. Briefly, cryo-preserved bacterial cultures of clinical strains are streaked for isolation on appropriate agar medium, in this case Mueller Hinton II agar. Following incubation to allow formation of colonies these plates are sealed with parafilm and stored refrigerated for up to two weeks. For preparation of assay inocula and to ensure low variability, at least 5 colonies are picked from the agar plates with an inoculating loop and aseptically transferred to a culture tube containing 3 mL of Mueller-Hinton Broth (supplemented with divalent cations to required levels based on Manufacturers' certification). The broth culture is grown for 3-5 hours at 37° C. with shaking at 200 rpm. Meanwhile, 2-fold serial dilutions of test compounds are conducted in a 96 well plate with a final volume of 75 μL per well at 2-fold the final desired concentration. After the dilution plates are set up the growing cultures are then diluted in a cuvette containing MH II broth and the optical density is measured at 600 nm. Inocula are diluted such that 75 μL of this culture in Mueller-Hinton Broth results in a starting bacterial concentration of 5×10^5 CFU/mL when added to the dilution plates. The plates are incubated 16-20 hours at 37° C. The MIC is read visually as the lowest concentration well with no bacterial growth.
(§4) To determine if test compounds were affected by various known β-lactamases, the inhibition of the growth of engineered strains of Escherichia coli harboring select single β-lactamases were tested. […]

[4] = system: E. coli DH5a harboring OXA-48; assay: Broth microdilution MIC, engineered E. coli expressing OXA-48; format: cell-based; conditions: Escherichia coli, read-out: MIC, β-lactamase OXA
Description: as §3, §4

[5] = system: E. coli DH5a with pLBII plasmid with no β-lactamase gene; assay: Broth microdilution MIC, engineered E. coli control strain (pLBII plasmid, no β-lactamase gene); format: cell-based; conditions: Escherichia coli, read-out: MIC, β-lactamase None
Description: as §3, §4

[6] = system: E. coli DH5a harboring NDM-1; assay: Broth microdilution MIC, engineered E. coli expressing NDM-1; format: cell-based; conditions: Escherichia coli, read-out: MIC, β-lactamase NDM
Description: as §3, §4

[7] = system: E. coli DH5a harboring VIM-2; assay: Broth microdilution MIC, engineered E. coli expressing VIM-2; format: cell-based; conditions: Escherichia coli, read-out: MIC, β-lactamase VIM
Description: as §3, §4

[8] = system: E. coli DH5a harboring CTX-M15; assay: Broth microdilution MIC, engineered E. coli expressing CTX-M15; format: cell-based; conditions: Escherichia coli, read-out: MIC, β-lactamase CTXM
Description: as §3, §4

[9] = system: E. coli DH5a harboring IMP-18; assay: Broth microdilution MIC, engineered E. coli expressing IMP-18; format: cell-based; conditions: Escherichia coli, read-out: MIC, β-lactamase IMP
Description: as §3, §4

[10] = system: E. coli DH5a harboring SHV-5; assay: Broth microdilution MIC, engineered E. coli expressing SHV-5; format: cell-based; conditions: Escherichia coli, read-out: MIC, β-lactamase SHV
Description: as §3, §4

CCO/N=C(\C(=O)N[C@H]1Cc2cccc(C(=O)O)c2OB1O)c1csc(N)n1 [Example 48, (R,Z)-3-(2-(2-aminothiazol-4-yl)-2-(ethoxyimino)acetamido)-2-hydroxy-3,4-dihydro-2H-benzo[e][1,2]oxaborinine-8-carboxylic Acid]
E. coli PBP3 Potency (E. coli PBP3): B (B represents a potency between 64 and 1000 μg/mL inclusive)
MIC (S. aureus ATCC 29213): 64 to 128 µg/mL
E. coli K12 PBP1b Potency (E. coli K12 PBP1b): B (B represents a potency between 64 and 1000 μg/mL inclusive)
MIC [1]: < 64 µg/mL
E. coli K12 PBP1a/b Potency (E. coli K12 PBP1a/b): B (B represents a potency between 64 and 1000 μg/mL inclusive)
E. coli PBP2 Potency (E. coli PBP2): B (B represents a potency between 64 and 1000 μg/mL inclusive)

CC(C)(O/N=C(\C(=O)N[C@H]1Cc2cccc(C(=O)O)c2OB1O)c1csc(N)n1)C(=O)O [Example 68, (R,Z)-3-(2-(2-aminothiazol-4-yl)-2-(((2-carboxypropan-2-yl)oxy)imino)acetamido)-2-hydroxy-3,4-dihydro-2H-benzo[e][1,2]oxaborinine-8-carboxylic Acid]
E. coli PBP3 Potency (E. coli PBP3): C (C represents a potency of <64 μg/mL)
MIC (S. aureus ATCC 29213): > 128 µg/mL
E. coli K12 PBP1b Potency (E. coli K12 PBP1b): C (C represents a potency of <64 μg/mL)
MIC [1]: < 64 µg/mL
E. coli K12 PBP1a/b Potency (E. coli K12 PBP1a/b): C (C represents a potency of <64 μg/mL)
E. coli PBP2 Potency (E. coli PBP2): C (C represents a potency of <64 μg/mL)

C[C@H]1[C@H](NC(=O)/C(=N\OC(C)(C)C(=O)O)c2csc(N)n2)C(=O)N1S(=O)(=O)O [Aztreonam, reference compound]
Effect of expressed β-lactamase on MIC [2]: weaker MICs in those strains
MIC [3]: 1 µg/mL
MIC [4]: 0.125 µg/mL
MIC [5]: 0.06 µg/mL
MIC [6]: 0.06 µg/mL
MIC [7]: 0.06 µg/mL
MIC [8]: 32 µg/mL
MIC [9]: 0.06 µg/mL
MIC [10]: 8 µg/mL
